Assay results from article PMC5063576, “High Potency VEGFRs/MET/FMS Triple Blockade by TAS-115 Concomitantly Suppresses Tumor Progression and Bone Destruction in Tumor-Induced Bone Disease Model with Lung Carcinoma Cells” (PLoS ONE, 2016).
pIC50: −log10 of the molar value.

Assays:
[1] = test system: VEGFR2 phosphorylation in MDBMs; test: In vitro MDBM signaling, rhVEGF-induced VEGFR2 phosphorylation; type: cell-based, mouse; details: rhVEGF 100 ng/mL 5 min, immunoprecipitation and Western blotting
Protocol: (§1) For analysis of the expression and phosphorylation levels of FMS, MET and VEGFR2, MDBMs were cultured with hM-CSF (20000 U/mL) for 4 days (400000 cells/dish in Suspension Culture Dishes (Corning Inc., NY). The phosphorylation levels of FMS and downstream signaling molecules were then analyzed in these MDBMs following incubation for 1 hr with test compounds at the indicated concentration. The phosphorylation of MET or VEGFR2 was analyzed in these MDBMs following stimulation with rhHGF (100 ng/mL, 10 min) or rhVEGF (100 ng/mL, 5 min), respectively. After incubation, the MDBMs were harvested, the cells were lysed and target signaling proteins were detected by immunoblotting. For analysis of VEGFR2 and its phosphorylated form, the lysate was immunoprecipiated with an anti-VEGFR antibody prior to immunoblotting.

[2] = target: MET (Homo sapiens, UniProt P08581); test: In vitro kinase assay, MET; type: biochemical; details: assay as described previously [16]
Sequence of MET (P08581 25-1390): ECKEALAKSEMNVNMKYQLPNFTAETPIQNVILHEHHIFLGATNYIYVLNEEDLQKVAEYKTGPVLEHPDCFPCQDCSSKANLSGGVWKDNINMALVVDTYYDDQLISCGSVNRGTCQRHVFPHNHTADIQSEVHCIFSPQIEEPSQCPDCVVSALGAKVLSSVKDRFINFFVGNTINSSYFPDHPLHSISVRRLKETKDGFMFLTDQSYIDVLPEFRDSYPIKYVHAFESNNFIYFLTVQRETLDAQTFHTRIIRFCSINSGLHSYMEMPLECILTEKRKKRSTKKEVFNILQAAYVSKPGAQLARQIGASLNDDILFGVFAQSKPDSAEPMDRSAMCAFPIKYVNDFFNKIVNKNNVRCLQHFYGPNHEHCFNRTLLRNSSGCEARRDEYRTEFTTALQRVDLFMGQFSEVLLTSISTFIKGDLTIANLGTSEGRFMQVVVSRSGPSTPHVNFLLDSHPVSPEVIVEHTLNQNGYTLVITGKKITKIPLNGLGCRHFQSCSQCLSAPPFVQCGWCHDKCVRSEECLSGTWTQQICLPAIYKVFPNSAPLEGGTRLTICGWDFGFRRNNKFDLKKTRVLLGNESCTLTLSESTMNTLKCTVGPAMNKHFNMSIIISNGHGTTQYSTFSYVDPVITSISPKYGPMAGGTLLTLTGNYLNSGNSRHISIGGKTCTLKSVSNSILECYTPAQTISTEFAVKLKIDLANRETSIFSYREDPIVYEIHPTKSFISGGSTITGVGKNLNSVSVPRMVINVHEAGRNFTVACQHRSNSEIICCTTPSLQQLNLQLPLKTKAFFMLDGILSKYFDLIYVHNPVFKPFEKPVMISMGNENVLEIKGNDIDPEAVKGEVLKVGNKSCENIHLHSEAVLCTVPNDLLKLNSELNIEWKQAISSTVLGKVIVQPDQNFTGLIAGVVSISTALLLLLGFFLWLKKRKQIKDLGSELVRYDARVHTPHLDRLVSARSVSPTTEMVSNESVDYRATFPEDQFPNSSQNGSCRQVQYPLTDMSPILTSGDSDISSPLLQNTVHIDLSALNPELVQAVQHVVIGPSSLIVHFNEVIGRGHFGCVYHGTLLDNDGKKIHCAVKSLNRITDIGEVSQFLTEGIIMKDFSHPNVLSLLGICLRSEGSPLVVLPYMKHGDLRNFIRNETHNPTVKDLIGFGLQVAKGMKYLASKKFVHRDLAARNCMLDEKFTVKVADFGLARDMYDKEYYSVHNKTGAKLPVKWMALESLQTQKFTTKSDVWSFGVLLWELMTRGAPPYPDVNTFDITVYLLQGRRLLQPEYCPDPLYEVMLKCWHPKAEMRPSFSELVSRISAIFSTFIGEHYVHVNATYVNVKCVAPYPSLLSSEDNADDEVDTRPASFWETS
Protocol: (§2) Enzyme inhibition studies were performed using LANCE® Ultra TR-FRET assay technology. Briefly, 0.03 μg/mL dephospho-rhFMS and 100 nM ULightTM-poly GT (4:1) (PerkinElmer) were mixed and incubated for 40 min at 25°C in 10 μL of reaction mixture containing 100 μM ATP, 15 mM tris (hydroxymethyl) aminomethane (Tris (pH 7.5)), 0.01% (v/v) Tween 20, 5 mM MgCl2, 2 mM dithiothreitol and various concentrations of the test compound. […] By referring to the TR-FRET signals of positive (no inhibitor) and negative (EDTA was added before the reaction was started) control wells, the percent inhibition of each well was calculated and the half-maximal inhibitory concentration (IC50) value was determined using a four-parameter sigmoidal equation. The assay of MET and VEGFR2 kinase activity was performed as described previously.

[3] = test system: A549-Luc-BM1-implanted tibia; test: Bone morphometrical analyses by micro-CT; type: in vivo, BALB/c nude mice; details: micro-CT after 4 weeks dosing; TAS-115 200, cabozantinib 15, sunitinib 40, crizotinib 100 mg/kg oral; vs control
Protocol: On day 29, the mice were euthanized by cervical dislocation under isoflurane anesthesia, and subsequently the A549-Luc-BM1-implanted tibia was removed and was fixed in 4% paraformaldehyde solution. Micro-CT imaging was performed by using Rm_CT2 (Rigaku corporation, Tokyo, Japan) with the following parameters: 90 kV, 160 μA, 3 min exposure, 10 mm field of view (20 μm voxel size). After scanning, 3D reconstruction was performed to produce a series of cross-sectional images by using specific software (3D Viewer Version 3.00.01, Rigaku corporation). In addition, bone mineral density (BMD) and 3D morphometrical primary parameters, including total volume (TV) and bone volume (BV), were calculated by using bone microstructure software (TRI/3D-BON-FCS64, Ratoc System Engineering, Tokyo, Japan). Volumetric BMD (vBMD), which has been reported to be a good index of osteoporosis, was calculated from primary parameters using the following formula: vBMD = BMD × BV / TV.

[4] = test system: FMS, ERK1/2 and AKT phosphorylation in MDBMs; test: In vitro MDBM signaling, M-CSF-stimulated FMS phosphorylation; type: cell-based, mouse; details: 1 hr incubation, Western blotting
Protocol: as §1

[5] = target: T1, Recombinant human FMS dephosphorylated with lambda phosphatase (dephospho-rhFMS) (Homo sapiens, UniProt P07333); test: In vitro kinase assay, recombinant dephospho-FMS (LANCE Ultra TR-FRET); type: biochemical; details: 100 μM ATP
T1 sequence (P07333 538-972): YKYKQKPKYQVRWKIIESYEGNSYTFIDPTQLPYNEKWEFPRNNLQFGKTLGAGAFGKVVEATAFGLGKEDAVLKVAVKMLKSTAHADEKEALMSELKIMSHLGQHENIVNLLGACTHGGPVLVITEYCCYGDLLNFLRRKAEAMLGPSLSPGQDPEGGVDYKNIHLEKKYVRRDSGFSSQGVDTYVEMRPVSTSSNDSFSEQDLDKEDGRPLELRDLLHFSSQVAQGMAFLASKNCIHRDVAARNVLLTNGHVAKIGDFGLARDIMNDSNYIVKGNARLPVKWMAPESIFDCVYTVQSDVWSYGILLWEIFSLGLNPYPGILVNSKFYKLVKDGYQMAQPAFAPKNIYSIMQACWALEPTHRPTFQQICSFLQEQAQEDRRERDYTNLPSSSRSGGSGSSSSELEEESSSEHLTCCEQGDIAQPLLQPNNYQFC
Protocol: as §2

[6] = test system: A549-Luc-BM1 cells in the mouse tibia; test: Tumor-induced bone disease model, intra-tibial A549-Luc-BM1, bioluminescence imaging; type: in vivo, BALB/c nude mice; details: day 28; 4 weeks; oral once daily TAS-115 200 mg/kg, cabozantinib 15 mg/kg, sunitinib 40 mg/kg, crizotinib 100 mg/kg; ZA 0.2 mg/kg s.c. twice weekly
Protocol: Tumor growth in the tibiae was monitored by bioluminescence imaging using an IVIS Lumina II Imaging System (PerkinElmer, MA). […] Images were analyzed using the Living Image 3.1 software (PerkinElmer). Total photon flux (TP) was calculated by summation of the photon flux of ventral and right lateral images. One week post tumor implantation, 8–9 animals were allocated to each experimental group by a stratified randomization method with SAS version 9.2 (SAS Institute Japan, Tokyo, Japan) using TP as an allocation parameter, following which drug treatment was then started. […] The doses of each drug were selected based on the maximum tolerated dose (MTD) in in-house studies (data not shown). […] Zoledronic acid (ZA) was subcutaneously injected twice weekly for 4 weeks at a dose of 0.2 mg/kg, which was a previously reported efficacious dose. The allocation day was set as day 0, and drug administration was initiated from day 1. As an indicator of changes in tumor growth during the dosing period, relative total photon flux (RTP), was calculated according to the following formula: RTPday n = (TP on each measurement day) / (TPday 0) × 100. TPday 0 is the TP on the allocation day.

pIC50 [2]: 7.49
pIC50 [5]: 7.82
Structure (SMILES): CNC(=O)c1cc2c(Oc3ccc(NC(=S)NC(=O)Cc4ccccc4)cc3F)ccnc2cc1OC [TAS-115, 4-[2-fluoro-4-[[[(2-phenylacetyl)amino]thioxomethyl]amino]-phenoxy] -7-methoxy-N-methyl-6-quinolinecarboxamide]
concentration inhibiting the phosphorylation of VEGFR2 [1]: greater than 0.03 μM
A549-Luc-BM1-induced changes in bone parameters (BV, TV, BMD, vBMD) [3]: significantly suppressed all of the changes
concentration markedly inhibiting M-CSF-stimulated phosphorylation of FMS, ERK1/2 and AKT [4]: greater than 0.03 μM
tumor growth inhibition percentage (TGI) [6]: 85%
